Measurements reported in ChEMBL document CHEMBL3132769, “Fragment growing to retain or alter the selectivity of anchored kinase hinge-binding fragments” (Medchemcomm, 2014).

Experiments:
[1] = target: Calcium/calmodulin-dependent protein kinase type II subunit gamma (Homo sapiens) (UniProt Q13555); test: Inhibition of human CAMK2 gamma catalytic domain expressed in baculovirus assessed as substrate phosphorylation using fluorescence-labelled peptides as substrate at 0.2 uM after 90 mins by microfluidic peptide phosphorylation assay
[2] = target: RAF proto-oncogene serine/threonine-protein kinase (Homo sapiens) (UniProt P04049); test: Inhibition of human truncated c-Raf expressed in baculovirus assessed as substrate phosphorylation using fluorescence-labelled peptides as substrate at 0.2 uM after 90 mins by microfluidic peptide phosphorylation assay
[3] = target: Platelet-derived growth factor receptor alpha (Homo sapiens) (UniProt P16234); test: Inhibition of human PDGFR alpha catalytic domain expressed in baculovirus assessed as substrate phosphorylation using fluorescence-labelled peptides as substrate at 420 uM after 90 mins by microfluidic peptide phosphorylation assay
[4] = target: T1, Serine/threonine-protein kinase Sgk1 (Homo sapiens) (UniProt O00141); details: 0.1 uM
T1 sequence (whole entry): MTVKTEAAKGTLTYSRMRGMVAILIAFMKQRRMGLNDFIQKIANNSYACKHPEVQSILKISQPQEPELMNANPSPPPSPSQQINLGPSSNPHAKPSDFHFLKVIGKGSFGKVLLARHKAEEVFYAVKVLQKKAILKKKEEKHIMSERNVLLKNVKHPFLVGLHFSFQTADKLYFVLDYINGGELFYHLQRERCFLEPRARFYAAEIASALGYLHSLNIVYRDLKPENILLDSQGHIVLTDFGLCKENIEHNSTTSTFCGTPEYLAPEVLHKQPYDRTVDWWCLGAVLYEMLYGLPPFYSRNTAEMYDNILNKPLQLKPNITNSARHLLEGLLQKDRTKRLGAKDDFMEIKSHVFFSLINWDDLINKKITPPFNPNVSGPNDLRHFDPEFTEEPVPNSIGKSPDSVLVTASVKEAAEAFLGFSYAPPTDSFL
Description: Inhibition of human truncated SGK1 expressed in baculovirus assessed as substrate phosphorylation using fluorescence-labelled peptides as substrate at 0.1 uM after 90 mins by microfluidic peptide phosphorylation assay

[5] = target: Tyrosine-protein kinase BTK (Homo sapiens) (UniProt Q06187); test: Inhibition of human full length BTK expressed in baculovirus assessed as substrate phosphorylation using fluorescence-labelled peptides as substrate at 95 uM after 90 mins by microfluidic peptide phosphorylation assay
[6] = test system: Fibroblast growth factor receptor 2 (Homo sapiens), P21802 [N549H]; test: Inhibition of human FGFR2 N549H mutant catalytic domain expressed in baculovirus assessed as substrate phosphorylation using fluorescence-labelled peptides as substrate at […] after 90 mins by microfluidic peptide phosphorylation assay
[7] = target: Insulin-like growth factor 1 receptor (Homo sapiens) (UniProt P08069); test: Inhibition of human IGF1R catalytic domain expressed in baculovirus assessed as substrate phosphorylation using fluorescence-labelled peptides as substrate at […] after 90 mins by microfluidic peptide phosphorylation assay
[8] = target: T2, Serine/threonine-protein kinase D1 (Homo sapiens) (UniProt Q15139); test: Inhibition of human full length PKD1 expressed in baculovirus assessed as substrate phosphorylation using fluorescence-labelled peptides as substrate at 0.06 uM after 90 mins by microfluidic peptide phosphorylation assay
T2 sequence (whole entry): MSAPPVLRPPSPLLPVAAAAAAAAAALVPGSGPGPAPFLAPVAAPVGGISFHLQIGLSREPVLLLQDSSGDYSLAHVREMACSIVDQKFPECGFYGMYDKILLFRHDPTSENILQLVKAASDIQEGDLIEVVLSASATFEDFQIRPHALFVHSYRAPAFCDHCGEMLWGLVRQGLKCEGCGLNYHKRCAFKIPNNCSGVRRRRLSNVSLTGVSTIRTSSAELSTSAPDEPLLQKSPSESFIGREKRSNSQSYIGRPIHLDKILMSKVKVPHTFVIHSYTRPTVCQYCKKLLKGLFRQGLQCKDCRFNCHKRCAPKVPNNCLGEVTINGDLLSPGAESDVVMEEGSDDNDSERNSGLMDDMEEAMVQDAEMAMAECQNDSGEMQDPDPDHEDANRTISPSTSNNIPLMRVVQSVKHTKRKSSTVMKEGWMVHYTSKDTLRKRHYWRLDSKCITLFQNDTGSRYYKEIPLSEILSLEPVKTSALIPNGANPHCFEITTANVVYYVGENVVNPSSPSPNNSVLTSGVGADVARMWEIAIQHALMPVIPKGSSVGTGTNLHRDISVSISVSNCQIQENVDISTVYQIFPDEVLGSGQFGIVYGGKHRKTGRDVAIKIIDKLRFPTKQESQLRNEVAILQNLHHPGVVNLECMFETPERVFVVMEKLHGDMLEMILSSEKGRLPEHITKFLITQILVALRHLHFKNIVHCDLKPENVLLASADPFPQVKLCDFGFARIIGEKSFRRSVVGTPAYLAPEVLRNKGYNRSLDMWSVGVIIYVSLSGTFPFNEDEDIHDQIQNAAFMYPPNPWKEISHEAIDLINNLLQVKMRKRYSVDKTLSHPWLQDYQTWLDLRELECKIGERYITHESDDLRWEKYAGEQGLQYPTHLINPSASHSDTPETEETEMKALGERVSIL

[9] = target: Ribosomal protein S6 kinase alpha-1 (Homo sapiens) (UniProt Q15418); test: Inhibition of human full length RSK1 expressed in baculovirus assessed as substrate phosphorylation using fluorescence-labelled peptides as substrate at 8 uM after 90 mins by microfluidic peptide phosphorylation assay
[10] = target: Tyrosine-protein kinase HCK (Homo sapiens) (UniProt P08631); test: Inhibition of human HCK catalytic domain expressed in baculovirus assessed as substrate phosphorylation using fluorescence-labelled peptides as substrate at 8 uM after 90 mins by microfluidic peptide phosphorylation assay
[11] = target: Receptor-type tyrosine-protein kinase FLT3 (Homo sapiens) (UniProt P36888); test: Inhibition of human FLT3 catalytic domain expressed in baculovirus assessed as substrate phosphorylation using fluorescence-labelled peptides as substrate at 8 uM after 90 mins by microfluidic peptide phosphorylation assay
[12] = target: Fibroblast growth factor receptor 2 (Homo sapiens) (UniProt P21802); test: Inhibition of human FGFR2 catalytic domain expressed in baculovirus assessed as substrate phosphorylation using fluorescence-labelled peptides as substrate at 1000 uM after 90 mins by microfluidic peptide phosphorylation assay
[13] = target: Tyrosine-protein kinase Fer (Homo sapiens) (UniProt P16591); test: Inhibition of human FER catalytic domain expressed in baculovirus assessed as substrate phosphorylation using fluorescence-labelled peptides as substrate at 1000 uM after 90 mins by microfluidic peptide phosphorylation assay
Sequence of Tyrosine-protein kinase Fer (Homo sapiens) (P16591 whole entry, looked up, the tested form may be a part): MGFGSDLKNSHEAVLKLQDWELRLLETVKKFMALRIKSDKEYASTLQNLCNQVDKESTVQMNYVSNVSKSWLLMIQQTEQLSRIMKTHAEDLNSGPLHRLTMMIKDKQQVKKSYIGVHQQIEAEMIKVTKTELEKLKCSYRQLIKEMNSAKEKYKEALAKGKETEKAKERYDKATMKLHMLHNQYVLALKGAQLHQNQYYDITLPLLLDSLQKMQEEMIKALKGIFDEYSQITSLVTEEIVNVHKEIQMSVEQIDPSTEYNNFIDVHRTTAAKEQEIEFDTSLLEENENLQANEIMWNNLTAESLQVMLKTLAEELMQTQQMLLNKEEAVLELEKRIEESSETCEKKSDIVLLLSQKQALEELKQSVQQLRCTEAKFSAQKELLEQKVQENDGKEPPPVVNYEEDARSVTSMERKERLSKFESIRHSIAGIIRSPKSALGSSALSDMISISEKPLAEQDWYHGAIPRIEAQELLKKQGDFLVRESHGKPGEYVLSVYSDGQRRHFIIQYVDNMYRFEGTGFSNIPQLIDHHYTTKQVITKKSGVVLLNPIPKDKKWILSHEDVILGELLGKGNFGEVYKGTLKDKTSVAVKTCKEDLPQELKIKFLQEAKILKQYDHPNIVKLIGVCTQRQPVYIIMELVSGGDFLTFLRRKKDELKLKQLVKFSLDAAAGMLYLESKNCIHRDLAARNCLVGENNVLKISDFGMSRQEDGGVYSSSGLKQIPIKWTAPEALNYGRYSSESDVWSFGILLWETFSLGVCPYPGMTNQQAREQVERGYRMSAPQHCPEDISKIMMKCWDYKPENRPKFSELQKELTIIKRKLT

Sequence of Platelet-derived growth factor receptor alpha (Homo sapiens) (P16234 whole entry, the tested form may be a part): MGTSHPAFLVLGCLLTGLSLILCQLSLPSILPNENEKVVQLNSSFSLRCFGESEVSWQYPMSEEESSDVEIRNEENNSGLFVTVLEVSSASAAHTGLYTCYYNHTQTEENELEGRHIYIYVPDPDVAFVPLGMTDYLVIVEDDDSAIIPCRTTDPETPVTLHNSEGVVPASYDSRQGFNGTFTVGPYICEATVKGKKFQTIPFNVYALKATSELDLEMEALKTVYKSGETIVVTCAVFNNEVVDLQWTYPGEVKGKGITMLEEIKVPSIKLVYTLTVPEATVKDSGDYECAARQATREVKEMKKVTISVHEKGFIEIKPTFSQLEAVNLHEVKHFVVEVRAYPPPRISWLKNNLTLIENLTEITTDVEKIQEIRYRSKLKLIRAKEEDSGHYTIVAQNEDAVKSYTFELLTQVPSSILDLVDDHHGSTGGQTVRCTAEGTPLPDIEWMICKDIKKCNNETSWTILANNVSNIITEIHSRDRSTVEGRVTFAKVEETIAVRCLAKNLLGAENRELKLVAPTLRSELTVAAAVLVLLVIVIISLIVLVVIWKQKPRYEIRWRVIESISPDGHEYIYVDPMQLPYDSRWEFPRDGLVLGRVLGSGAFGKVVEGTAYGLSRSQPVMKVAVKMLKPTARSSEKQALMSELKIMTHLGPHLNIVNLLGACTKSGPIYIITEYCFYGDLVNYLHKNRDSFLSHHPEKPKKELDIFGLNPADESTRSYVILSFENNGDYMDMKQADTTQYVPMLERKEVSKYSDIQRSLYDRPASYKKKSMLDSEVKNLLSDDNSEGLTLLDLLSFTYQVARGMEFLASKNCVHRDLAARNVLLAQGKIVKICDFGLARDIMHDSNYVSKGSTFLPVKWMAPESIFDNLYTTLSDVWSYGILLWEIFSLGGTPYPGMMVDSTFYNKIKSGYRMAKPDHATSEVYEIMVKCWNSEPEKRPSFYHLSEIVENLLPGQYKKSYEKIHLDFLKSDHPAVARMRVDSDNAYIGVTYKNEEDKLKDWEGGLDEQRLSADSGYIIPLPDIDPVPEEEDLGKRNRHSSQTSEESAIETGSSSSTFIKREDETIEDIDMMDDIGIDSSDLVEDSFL
Sequence of Receptor-type tyrosine-protein kinase FLT3 (Homo sapiens) (P36888 whole entry, the tested form may be a part): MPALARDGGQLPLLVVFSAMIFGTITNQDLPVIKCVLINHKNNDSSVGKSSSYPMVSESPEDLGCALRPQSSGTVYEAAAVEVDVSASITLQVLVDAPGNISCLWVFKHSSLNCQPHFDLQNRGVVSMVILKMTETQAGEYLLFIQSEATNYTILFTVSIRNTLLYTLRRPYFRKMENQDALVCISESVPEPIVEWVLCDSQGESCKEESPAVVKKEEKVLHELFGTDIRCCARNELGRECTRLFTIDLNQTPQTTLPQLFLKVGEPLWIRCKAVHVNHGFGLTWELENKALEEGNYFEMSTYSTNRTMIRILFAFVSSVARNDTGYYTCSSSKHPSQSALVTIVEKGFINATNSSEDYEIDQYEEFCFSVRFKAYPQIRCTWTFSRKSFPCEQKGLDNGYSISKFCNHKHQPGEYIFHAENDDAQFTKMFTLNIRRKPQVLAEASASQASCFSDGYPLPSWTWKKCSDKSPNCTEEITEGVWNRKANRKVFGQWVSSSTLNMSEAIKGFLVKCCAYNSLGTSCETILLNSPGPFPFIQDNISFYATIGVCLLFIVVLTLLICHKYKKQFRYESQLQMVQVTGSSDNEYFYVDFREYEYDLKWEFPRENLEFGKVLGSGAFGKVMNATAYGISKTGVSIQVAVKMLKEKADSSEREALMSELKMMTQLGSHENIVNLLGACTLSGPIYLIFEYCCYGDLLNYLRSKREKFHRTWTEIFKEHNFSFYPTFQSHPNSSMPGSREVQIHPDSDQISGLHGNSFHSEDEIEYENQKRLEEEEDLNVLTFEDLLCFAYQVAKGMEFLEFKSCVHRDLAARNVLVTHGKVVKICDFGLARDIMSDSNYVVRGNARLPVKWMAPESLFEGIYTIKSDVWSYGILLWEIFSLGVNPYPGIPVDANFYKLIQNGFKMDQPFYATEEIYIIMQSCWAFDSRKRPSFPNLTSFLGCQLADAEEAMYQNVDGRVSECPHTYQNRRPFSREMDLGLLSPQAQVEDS
Sequence of Ribosomal protein S6 kinase alpha-1 (Homo sapiens) (Q15418 whole entry, the tested form may be a part): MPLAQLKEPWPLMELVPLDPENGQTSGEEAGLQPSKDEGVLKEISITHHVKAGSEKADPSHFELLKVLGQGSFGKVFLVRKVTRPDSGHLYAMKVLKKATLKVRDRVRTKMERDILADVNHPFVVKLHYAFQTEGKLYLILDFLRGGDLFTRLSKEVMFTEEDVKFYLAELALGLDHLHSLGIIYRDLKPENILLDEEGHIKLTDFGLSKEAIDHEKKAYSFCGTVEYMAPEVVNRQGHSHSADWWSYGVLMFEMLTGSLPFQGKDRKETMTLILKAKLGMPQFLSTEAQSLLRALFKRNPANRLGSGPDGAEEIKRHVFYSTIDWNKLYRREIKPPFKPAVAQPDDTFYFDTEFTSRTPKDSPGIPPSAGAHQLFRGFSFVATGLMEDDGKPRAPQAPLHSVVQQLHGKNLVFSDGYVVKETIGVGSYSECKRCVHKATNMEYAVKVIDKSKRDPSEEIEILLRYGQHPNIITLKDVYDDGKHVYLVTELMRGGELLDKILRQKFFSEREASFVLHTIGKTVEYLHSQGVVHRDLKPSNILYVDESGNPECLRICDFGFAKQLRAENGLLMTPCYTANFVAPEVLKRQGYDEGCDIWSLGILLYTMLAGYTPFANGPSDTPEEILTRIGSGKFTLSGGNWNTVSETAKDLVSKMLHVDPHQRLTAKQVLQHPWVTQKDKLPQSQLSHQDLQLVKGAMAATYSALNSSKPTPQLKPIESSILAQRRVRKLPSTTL
Sequence of RAF proto-oncogene serine/threonine-protein kinase (Homo sapiens) (P04049 whole entry, the tested form may be a part): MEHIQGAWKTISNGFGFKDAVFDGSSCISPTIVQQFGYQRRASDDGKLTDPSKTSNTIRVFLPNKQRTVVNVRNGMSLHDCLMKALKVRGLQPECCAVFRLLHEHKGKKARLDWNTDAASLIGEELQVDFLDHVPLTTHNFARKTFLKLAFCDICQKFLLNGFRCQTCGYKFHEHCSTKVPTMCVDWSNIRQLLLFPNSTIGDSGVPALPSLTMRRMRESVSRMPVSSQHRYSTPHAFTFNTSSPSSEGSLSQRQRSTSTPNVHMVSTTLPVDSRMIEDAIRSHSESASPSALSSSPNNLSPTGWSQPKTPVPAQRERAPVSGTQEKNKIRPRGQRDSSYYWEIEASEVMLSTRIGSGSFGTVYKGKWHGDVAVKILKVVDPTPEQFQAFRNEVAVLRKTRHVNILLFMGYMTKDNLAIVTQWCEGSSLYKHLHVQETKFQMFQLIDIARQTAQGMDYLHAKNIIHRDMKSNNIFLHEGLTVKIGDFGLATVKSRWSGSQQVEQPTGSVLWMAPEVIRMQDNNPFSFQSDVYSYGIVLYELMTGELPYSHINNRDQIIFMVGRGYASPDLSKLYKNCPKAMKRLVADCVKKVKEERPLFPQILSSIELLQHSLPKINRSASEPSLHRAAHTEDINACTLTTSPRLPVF
Sequence of Tyrosine-protein kinase HCK (Homo sapiens) (P08631 2-526 limits assumed): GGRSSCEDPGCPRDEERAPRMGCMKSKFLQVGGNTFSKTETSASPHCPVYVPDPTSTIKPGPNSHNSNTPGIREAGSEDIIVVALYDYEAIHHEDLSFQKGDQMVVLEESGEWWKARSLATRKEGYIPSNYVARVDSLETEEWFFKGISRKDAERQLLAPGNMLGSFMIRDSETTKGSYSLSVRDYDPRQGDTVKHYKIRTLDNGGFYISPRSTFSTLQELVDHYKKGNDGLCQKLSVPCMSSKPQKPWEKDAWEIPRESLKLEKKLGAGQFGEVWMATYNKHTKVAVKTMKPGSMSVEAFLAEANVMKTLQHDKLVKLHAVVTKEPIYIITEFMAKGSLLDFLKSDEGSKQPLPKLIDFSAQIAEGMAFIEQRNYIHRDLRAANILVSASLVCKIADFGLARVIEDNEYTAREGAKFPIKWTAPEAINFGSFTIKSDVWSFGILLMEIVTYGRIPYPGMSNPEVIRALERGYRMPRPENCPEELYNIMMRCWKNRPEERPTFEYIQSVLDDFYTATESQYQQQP

`Clc1ccc(C2(c3ccc(-c4ncnc5[nH]cnc45)cc3)CCNCC2)cc1` showed an inhibition [1] of 15% and an inhibition [2] of 3.5%.
Work on `c1nc(N2CCOCC2)c2nc[nH]c2n1` yielded an inhibition [3] of 32.5%.
Compound `C[C@H](CN(C)C)Oc1nc(Nc2cc3cccc(Cl)c3cn2)cnc1C#N` has an inhibition [4] of 0%.
For `NCCc1ccc(-c2ncnc3[nH]cnc23)cc1`, the inhibition [5] was 17%.
`COC(=O)c1cnc(Nc2cnc(C#N)cn2)cc1NCC1CCNCC1` was tested, and the inhibition [6] was 6.5% and the inhibition [7] was 3.5%.
`NC1(Cc2ccc(Cl)cc2)CCN(c2ncnc3[nH]ccc23)CC1` was tested, and the inhibition [8] was 32.5%.
`NCC1CCN(c2ncnc3[nH]ccc23)CC1` was tested, and the inhibition [9] was 11.5%, the inhibition [10] was 19.5% and the inhibition [11] was 0%.
`c1cnc2[nH]ccc2c1` was tested, and the inhibition [12] was 62% and the inhibition [13] was 18%.
